Results reported in ChEMBL document CHEMBL6078700, “Synthesis of novel deuterated EGFR/ALK dual-target inhibitors and their activity against non-small cell lung cancer” (Eur J Med Chem, 2025).
pIC50: −log10 of the molar value.

Columns and labels:
BaF3 = test: Antiproliferative activity against mouse BaF3 cells expressing EML4-ALK fusion incubated for 48 hrs by CCK8 assay; settings: baf3
NCI-H2228 = test: Antiproliferative activity against human NCI-H2228 cells expressing EML4-ALK fusion incubated for 48 hrs by CCK8 assay; settings: nci-h2228
[1] = Antiproliferative activity against human NCI-H1975 cells expressing EGFR mutation incubated for 48 hrs by CCK8 assay; settings: nci-h1975
NCI-H522 = test: Antiproliferative activity against human NCI-H522 cells expressing wild-type EGFR/ALK incubated for 48 hrs by CCK8 assay; settings: nci-h522
[2] = Antiproliferative activity against human HLF1 cells incubated for 48 hrs by CCK8 assay; assay type: toxicity, cell-based; settings: hlf1, 48 h
[3] = Antiproliferative activity against human THLE-3 cells incubated for 48 hrs by CCK8 assay; assay type: toxicity, cell-based; settings: thle-3, 48 h
HK-2 = test: Antiproliferative activity against human HK-2 cells incubated for 48 hrs by CCK8 assay; assay type: toxicity, cell-based; settings: hk-2, 48 h
L02 = test: Antiproliferative activity against human L02 cells incubated for 48 hrs by CCK8 assay; assay type: toxicity, cell-based; settings: l02, 48 h
NCI-H1975 [4] = test: Induction of cell cycle arrest in human NCI-H1975 cells assessed as accumulation at G0/G1 phase at 1 nM incubated for 24 hrs by PI/RNase staining based flow cytometry (reference value: 50.19 %); assay type: functional
NCI-H1975 [5] = test: Induction of cell cycle arrest in human NCI-H1975 cells assessed as accumulation at S phase at 1 nM incubated for 24 hrs by PI/RNase staining based flow cytometry (reference value: 17.1 %); assay type: functional
NCI-H1975 [6] = test: Induction of cell cycle arrest in human NCI-H1975 cells assessed as accumulation at G2/M phase at 1 nM incubated for 24 hrs by PI/RNase staining based flow cytometry (reference value: 32.71 %); assay type: functional
NCI-H1975 [7] = test: Induction of cell cycle arrest in human NCI-H1975 cells assessed as accumulation at G0/G1 phase at 5 nM incubated for 24 hrs by PI/RNase staining based flow cytometry (reference value: 50.19 %); assay type: functional
NCI-H1975 [8] = test: Induction of cell cycle arrest in human NCI-H1975 cells assessed as accumulation at S phase at 5 nM incubated for 24 hrs by PI/RNase staining based flow cytometry (reference value: 17.1 %); assay type: functional
NCI-H1975 [9] = test: Induction of cell cycle arrest in human NCI-H1975 cells assessed as accumulation at G2/M phase at 5 nM incubated for 24 hrs by PI/RNase staining based flow cytometry (reference value: 32.71 %); assay type: functional
NCI-H1975 [10] = test: Induction of cell cycle arrest in human NCI-H1975 cells assessed as accumulation at G0/G1 phase at 10 nM incubated for 24 hrs by PI/RNase staining based flow cytometry (reference value: 50.19 %); assay type: functional
NCI-H1975 [11] = test: Induction of cell cycle arrest in human NCI-H1975 cells assessed as accumulation at S phase at 10 nM incubated for 24 hrs by PI/RNase staining based flow cytometry (reference value: 17.1 %); assay type: functional
NCI-H1975 [12] = test: Induction of cell cycle arrest in human NCI-H1975 cells assessed as accumulation at G2/M phase at 10 nM incubated for 24 hrs by PI/RNase staining based flow cytometry (reference value: 32.71 %); assay type: functional
NCI-H1975 [13] = test: Induction of apoptosis in human NCI-H1975 cells assessed as viable cells at 1 nM incubated for 48 hrs by allo-Phycocyanin-Annexin V staining based flow cytometry (reference value: 93.6 %); assay type: functional; settings: read-out: Activity
NCI-H1975 [14] = test: Induction of apoptosis in human NCI-H1975 cells assessed as early apoptotic cells at 1 nM incubated for 48 hrs by allo-Phycocyanin-Annexin V staining based flow cytometry (reference value: 2.27 %); assay type: functional
NCI-H1975 [15] = test: Induction of apoptosis in human NCI-H1975 cells assessed as late apoptotic cells at 1 nM incubated for 48 hrs by allo-Phycocyanin-Annexin V staining based flow cytometry (reference value: 4.08 %); assay type: functional
NCI-H1975 [16] = test: Induction of apoptosis in human NCI-H1975 cells assessed as necrotic cells at 1 nM incubated for 48 hrs by allo-Phycocyanin-Annexin V staining based flow cytometry (reference value: 0.031 %); assay type: functional
NCI-H1975 [17] = test: Induction of apoptosis in human NCI-H1975 cells assessed as viable cells at 5 nM incubated for 48 hrs by allo-Phycocyanin-Annexin V staining based flow cytometry (reference value: 93.6 %); assay type: functional; settings: Homo sapiens, NCI-H1975, read-out: Activity
NCI-H1975 [18] = test: Induction of apoptosis in human NCI-H1975 cells assessed as early apoptotic cells at 5 nM incubated for 48 hrs by allo-Phycocyanin-Annexin V staining based flow cytometry (reference value: 2.27 %); assay type: functional
NCI-H1975 [19] = test: Induction of apoptosis in human NCI-H1975 cells assessed as late apoptotic cells at 5 nM incubated for 48 hrs by allo-Phycocyanin-Annexin V staining based flow cytometry (reference value: 4.08 %); assay type: functional
NCI-H1975 [20] = test: Induction of apoptosis in human NCI-H1975 cells assessed as necrotic cells at 5 nM incubated for 48 hrs by allo-Phycocyanin-Annexin V staining based flow cytometry (reference value: 0.031 %); assay type: functional
NCI-H1975 [21] = test: Induction of apoptosis in human NCI-H1975 cells assessed as viable cells at 10 nM incubated for 48 hrs by allo-Phycocyanin-Annexin V staining based flow cytometry (reference value: 93.6 %); assay type: functional; settings: read-out: Activity
NCI-H1975 [22] = test: Induction of apoptosis in human NCI-H1975 cells assessed as early apoptotic cells at 10 nM incubated for 48 hrs by allo-Phycocyanin-Annexin V staining based flow cytometry (reference value: 2.27 %); assay type: functional
NCI-H1975 [23] = test: Induction of apoptosis in human NCI-H1975 cells assessed as late apoptotic cells at 10 nM incubated for 48 hrs by allo-Phycocyanin-Annexin V staining based flow cytometry (reference value: 4.08 %); assay type: functional
NCI-H1975 [24] = test: Induction of apoptosis in human NCI-H1975 cells assessed as necrotic cells at 10 nM incubated for 48 hrs by allo-Phycocyanin-Annexin V staining based flow cytometry (reference value: 0.031 %); assay type: functional
[25] = Cmax in Sprague-Dawley rat at 10 mg/kg, po; assay type: ADME, organism-based; settings: in vivo
[26] = Tmax in Sprague-Dawley rat at 10 mg/kg, po; assay type: ADME, organism-based; settings: in vivo
[27] = Half life in Sprague-Dawley rat at 10 mg/kg, po; assay type: ADME, organism-based; settings: in vivo
[28] = MRT (0 to t) in Sprague-Dawley rat at 10 mg/kg, po; assay type: ADME, organism-based; settings: in vivo
[29] = Oral bioavailability in Sprague-Dawley rat at 10 mg/kg; assay type: ADME, organism-based; settings: in vivo
[30] = Tmax in Sprague-Dawley rat at 1 mg/kg, iv; assay type: ADME, organism-based; settings: in vivo
[31] = Half life in Sprague-Dawley rat at 1 mg/kg, iv; assay type: ADME, organism-based; settings: in vivo
[32] = Apparent volume of distribution during terminal phase in Sprague-Dawley rat at 1 mg/kg, iv; assay type: ADME, organism-based; settings: in vivo
[33] = Apparent oral clearance in Sprague-Dawley rat at 1 mg/kg, iv; assay type: ADME, organism-based; settings: in vivo
NCI-H1975 [34] = test: Antitumor activity against human NCI-H1975 cells xenografted in BALB/c-nu mouse at 5 mg/kg, po administered daily orally for 21 days relative to control; assay type: functional; settings: Mus musculus, NCI-H1975, po, 504 h, time 21 day, read-out: TGI
NCI-H1975 [35] = test: Antitumor activity against human NCI-H1975 cells xenografted in BALB/c-nu mouse at 15 mg/kg, po administered daily orally for 21 days relative to control; assay type: functional; settings: Mus musculus, NCI-H1975, po, 504 h, time 21 day, read-out: TGI
NCI-H1975 [36] = test: Antitumor activity against human NCI-H1975 cells xenografted in BALB/c-nu mouse at 30 mg/kg, po administered daily orally for 21 days relative to control; assay type: functional; settings: Mus musculus, NCI-H1975, po, 504 h, time 21 day, read-out: TGI

In the case of `[2H]C([2H])([2H])C([2H])([2H])[S+]([O-])c1ccccc1Nc1nc(Nc2cc(NC(=O)C=C)c(N(C)CCN(C)C)cc2OC)ncc1Cl` (single isomer, unassigned; (-)), the pIC50 (BaF3) was 8.62, the pIC50 (NCI-H2228) was 7.67 and the pIC50 [1] was 8.97. For the same molecule, the pIC50 (NCI-H522) was 5.71, the Activity [2] was “Non-toxic” and the Activity [3] was “Non-toxic”. For the same molecule, the Activity (HK-2) was “Non-toxic”, the Activity (L02) was “Non-toxic” and the Activity (NCI-H1975 [4]) was 64.57%. It also gave an Activity (NCI-H1975 [5]) of 12.5%, an Activity (NCI-H1975 [6]) of 22.93% and an Activity (NCI-H1975 [7]) of 67.31%. The Activity (NCI-H1975 [8]) was 3.78%, the Activity (NCI-H1975 [9]) was 28.91% and the Activity (NCI-H1975 [10]) was 68.32%. It also gave an Activity (NCI-H1975 [11]) of 3.84%, an Activity (NCI-H1975 [12]) of 28.2% and a viability at 0.001 µM (NCI-H1975 [13]) of 75.4%. For the same molecule, the Activity (NCI-H1975 [14]) was 16.6%, the Activity (NCI-H1975 [15]) was 7.98% and the Activity (NCI-H1975 [16]) was 0.071%. For the same molecule, the viability at 0.005 µM (NCI-H1975 [17]) was 62.8%, the Activity (NCI-H1975 [18]) was 22.8% and the Activity (NCI-H1975 [19]) was 14.3%. It also gave an Activity (NCI-H1975 [20]) of 0.16%, a viability at 0.01 µM (NCI-H1975 [21]) of 46.8% and an Activity (NCI-H1975 [22]) of 32.5%. It also gave an Activity (NCI-H1975 [23]) of 20.5%, an Activity (NCI-H1975 [24]) of 0.22% and a Cmax [25] of 169 ng/mL. It also gave a Tmax [26] of 0.5 h, a half-life [27] of 4.65 h and an MRT last [28] of 3.57 h. It also gave a bioavailability [29] of 44.1%, a Tmax [30] of 1.98 min and a half-life [31] of 1.06 h. It also gave a Vz/F [32] of 5.9 L/kg, a CL/F [33] of 63.7 mL/min/kg and an inhibition in vivo at 5 mg/kg (NCI-H1975 [34]) of 80.3%. It also gave an inhibition in vivo at 15 mg/kg (NCI-H1975 [35]) of 93.2% and an inhibition in vivo at 30 mg/kg (NCI-H1975 [36]) of 97.2%.
